# Measurements: EP0474580B1, “Use of 1-[3-(dimethylamino)propyl]-1-phenylphthalenes for the treatment of cerebrovascular disorders” (priority 1990, dated 1992)
# Marks after values point to notes of the source that are not given here.
# Columns and labels:
# KCN-induced coma = KCN-induced coma in mice; type: in vivo, mice (Crj:ICR); conditions: for coma time: vs vehicle
# Description: Male mice (Crj:ICR) weighing 20-30 g were used. The mice were fasted for one day. The drugs, dissolved in saline, were injected intraperitoneally. 30 min after the injection, KCN, dissolved in saline, was injected intravenously at a dose of 1.3 mg/kg. The duration of disappearance of righting reflex was measured as coma time.
# [1] = test system: passive avoidance in ischemic gerbils; assay: Step-down passive avoidance in ischemic gerbils; type: in vivo; conditions: for Step-down latency [log(s)] Mean: ischemic gerbils, testing phase (max. 60 s); for latency of ischemic gerbils (testing phase): vs ischemic control
# Description: The test employed was step-down passive avoidance in gerbils treated with test compounds prior to occlusion of carotid arteries followed by acquisition trial (training phase).
# Test compounds were administered intraperitoneally to gerbils 30 min prior to carotid occlusion or ketamine was administered intraperitoneally 10 min prior to carotid occlusion. The gerbils were anesthetized with 2% halothane contained in a mixture of 70% nitrogen and 30% oxygen. The right and left common carotid arteries were occluded for 5 min. The gerbils were trained for 5 min in a step-down type passive avoidance chamber (16x16x20 cm) two days after induced ischemia. Each gerbil was placed on a safety platform (6x16x20 cm) in the chamber and received a series of mild foot shocks (0.1 mA for 3 s every 6 s), when the gerbil stepped down to a floor made of metal rods. Gerbils were returned to the safety platform for testing 24 h later and their step-down latencies to the grid floor were recorded (max. 60 s). RESULTS
# [2] = test system: carbon dioxide-induced amnesia; assay: Carbon dioxide-induced amnesia in rats (one-trial passive avoidance test); type: in vivo, Sprague-Dawley (CD) rats; conditions: for group mean 'step-through' times: oral
# Excerpt: The test employed was a one-trial passive avoidance test in rats, using carbon dioxide asphyxiation to induce amnesia. Female Sprague-Dawley (CD) rats (A. Tick & Son Ltd.) in the body weight range 160-180g were used for the study. The one-trial passive avoidance apparatus consisted of a 32 x 32 x 32 cm chamber with opaque walls and a metal grid floor. A 6 cm wide , 25 cm long runway protruded from the front wall of the chamber. The runway was illuminated while the chamber was dark. When placed on the runway, a rat could enter the chamber through a 6 x 6 cm opening. A scrambled footshock could be delivered through the metal grid floor of the chamber. On the first day of the experiment, the rats received three pre-treatment training trials, during which each animal was placed on the end of the runway and the time taken to enter the chamber (the 'step-through' latency) was determined. On the second day of the experiment, groups of 10 animals were treated p.o. with test compound dissolved in saline or with saline. One hour after administration, an acquisition trial was performed. This was similar to a training trial, except that the rats received a footshock of 1.0 mA for 10 s commencing 10 s after entering the chamber. Immediately after the application of the footshock the animals were subjected to amnesic treatment. Amnesic treatment consisted of placing the rats in a box filled with carbon dioxide until respiratory arrest occurred; the rats were then revived by artificial respiration. 24 Hours after the acquisition trial, a single retrieval trial was given to each rat and the time taken to enter the chamber ('step-through' latency) was recorded for each animal.
# [3] = test system: ischemia induced hippocampal neuronal damage; assay: Ischemia-induced hippocampal death in gerbils; type: in vivo, Mongolian gerbils; conditions: for Survival neurons/mm mean: counted along CA1 after seven days; for protective effect against neuronal lesions: vs vehicle
# Description: Test compounds were administered intraperitoneally to Male Mongolian gerbils 30 min before carotid occlusion. Carotid occlusion time was 5 min . Seven days after recovery, the animals were killed, brains removed, sectioned and surviving neurons were counted along CA1 in the hippocampus.
# [4] = test system: depression associated with Alzheimer's disease; conditions: C.G. Gottfries, Psychopharmacology, 1988; cited from earlier work
# [5] = test system: vascular dementia (VD, incl. MID); conditions: patients with vascular dementia (VD, incl. MID); Nyth et al. 1989; cited from earlier work
# [6] = test system: moderate dementia of Alzheimer's type (AD/SDAT) or multi-infarct dementia (MID); conditions: patients with moderate AD/SDAT or MID; Nyth et al. 1988/1990; cited from earlier work
# [7] = Toxicity study, oral administration in rats; type: in vivo; conditions: 350 mg/kg orally, male and female SD rats, observed for one week
# Excerpt: In toxicity studies male and female SD rats ranging in weight from 170 g to 200 g were used one day after fasting.
# [8] = test system: ischemia-induced death in bilateral carotid arterial ligation (BCAL); assay: Brain ischemia-induced death in mice (bilateral carotid arterial ligation); type: in vivo, ICR MICE
# Description: Male ICR MICE (Charles River) weighing 30 - 40 g were used after they were fasted for 1 day.
# […] Surviving mice were observed over 4 h.
smiles,measurement,setting,value
"C1=Cc2cccc(OCC3CNCCO3)c2C1 (stereo not drawn) [Indeloxazine, reference compound]",Coma time (s) Mean,KCN-induced coma; 20 mg/kg i.p. 30 min before KCN 1.3 mg/kg i.v.,13.8 s
same,coma time,KCN-induced coma; 20 mg/kg,significantly reduced the coma time
same,Step-down latency [log(s)] Mean,[1]; 40 mg/kg i.p. 30 min prior to carotid occlusion,1.085 log(s)
same,latency of ischemic gerbils (testing phase),[1]; 40 mg/kg,not significantly different
"NC(=O)CN1CCCC1=O [Piracetam, reference compound]",Latency (s),"[2]; 300 mg/kg p.o. one hour before acquisition trial, CO2 treatment +, retrieval trial 24 h later (max. 180 s)",108.8*** s
same,time of entry ('step-through' latency) compared with vehicle,"[2]; oral doses of 40 or 1000 mg/kg, indicates no marked muscle incoordination or CNS effects",no significant differences
same,'step-through' latencies,"[2]; piracetam treatment, dose not given",statistically significantly longer
"CN(C)CCCC1(c2ccc(F)cc2)OCc2cc(C#N)ccc21 (stereo not drawn) [Citalopram, citalopram]",Survival neurons/mm mean,[3]; 20 mg/kg i.p. 30 min before 5 min carotid occlusion,38.0 neurons/mm
same,protective effect against neuronal lesions,[3]; 20 mg/kg,weak but non-significant protective effect
same,Survival neurons/mm mean,[3]; 40 mg/kg i.p. 30 min before 5 min carotid occlusion,95.8 neurons/mm
same,protective effect against neuronal lesions,[3]; 40 mg/kg,significant (p < 0.05 ) protective effect
same,effect against depression associated with Alzheimer's disease,[4],effective
same,Coma time (s) Mean,KCN-induced coma; 1.25 mg/kg i.p. 30 min before KCN 1.3 mg/kg i.v.,38.5 s
same,Coma time (s) Mean,KCN-induced coma; 2.5 mg/kg i.p. 30 min before KCN 1.3 mg/kg i.v.,33.2 s
same,Coma time (s) Mean,KCN-induced coma; 5 mg/kg i.p. 30 min before KCN 1.3 mg/kg i.v.,35.0 s
same,Coma time (s) Mean,KCN-induced coma; 10 mg/kg i.p. 30 min before KCN 1.3 mg/kg i.v.,27.4 s
same,coma time,KCN-induced coma; 10 mg/kg intraperitoneal,significantly reduced coma time
same,emotional disturbances,[5],no significant improvement
same,Step-down latency [log(s)] Mean,[1]; 20 mg/kg i.p. 30 min prior to carotid occlusion,1.386 log(s)
same,latency of ischemic gerbils (testing phase),[1]; 20 mg/kg,significantly increased the latency
same,effect on intellectual functions,[6],did not appear to have effect
same,"emotional lability, motivation, confusion, fear-panic, irritation, reduced mood and restlessness",[6],significant improvements
same,deaths,[7],no deaths were observed
same,Latency,"[2]; 5 mg/kg p.o. one hour before acquisition trial, CO2 treatment +, retrieval trial 24 h later (max. 180 s)",31.2 s
same,Latency (s),"[2]; 10 mg/kg p.o. one hour before acquisition trial, CO2 treatment +, retrieval trial 24 h later (max. 180 s)",77.2** s
same,Latency (s),"[2]; 20 mg/kg p.o. one hour before acquisition trial, CO2 treatment +, retrieval trial 24 h later (max. 180 s)",114.3*** s
same,group mean 'step-through' times,[2]; 2 highest doses tested (i.e. 20 and 40 mg/kg),marked and highly significant increase
same,group mean 'step-through' times,"[2]; all doses tested, vs saline-treated control group",dose-related increases
"CNC1(c2ccccc2Cl)CCCCC1=O (stereo not drawn) [Ketamine, reference compound]",Survival neurons/mm mean,[3]; 100 mg/kg i.p. before 5 min carotid occlusion,174.5 neurons/mm
same,protective effect against neuronal lesions,[3]; 100 mg/kg,significant (p < 0.01) protective effect
same,Step-down latency [log(s)] Mean,[1]; 120 mg/kg i.p. 10 min prior to carotid occlusion,1.348 log(s)
same,latency of ischemic gerbils (testing phase),[1]; 120 mg/kg,significantly increased the latency
CC(C(O)c1ccc(O)cc1)N1CCC(Cc2ccccc2)CC1 (stereo not drawn) [Ifenprodil],Survival rate (%) 2 h after BCAL,"[8]; 30 mg/kg,p.o., 30 min prior to ligation, 2 h after BCAL",47** %
same,Survival rate (%) 4 h after BCAL,"[8]; 30 mg/kg,p.o., 30 min prior to ligation, 4 h after BCAL",20%
same,ischemia-induced death / survival rate 2 h after ligation,"[8]; 30 mg/kg, 2 h after bilateral carotid arterial ligation, vs saline",significantly increased survival rate
same,ischemia-induced death / survival rate 4 h after ligation,"[8]; 30 mg/kg, 4 h after bilateral carotid arterial ligation, vs saline",did not significantly increase survival rate
